Source: patent US20260248791A1, “METHODS FOR TREATING DERMATOMYOSITIS WITH BREPOCITINIB” (priority 2023, published 2026)

What was measured:
[1] = Broad off-target panel; details: functional assays, ligand binding, enzyme activity
[2] = tested on: cytokine signaling pathways that engage TYK2 and/or JAK1, including IFNα, IFNg, IL-12, and IL-23; assay: Cytokine signaling in human whole blood; type: cell-based; details: IL-12, IL-23
[3] = Dose-response across Phase 2 studies; type: in vivo, human; details: normalized responder rate vs average daily dose across Phase 2 studies
[4] = tested on: rat adjuvant-induced arthritis; assay: Rat adjuvant-induced arthritis disease model; details: in vivo
Source text: (§1) Pharmacology. Brepocitinib inhibits various TYK2- and JAK1-dependent functions in different cell types such as cytokine-induced phosphorylation of signal transducer and activator transcriptions (STATs) in human peripheral blood mononuclear cells (PBMCs) and whole blood; differentiation of T helper (Th) 1, Th17, and B cells, interleukin (IL)-12-induced IFNγ production in human PBMCs; and IFN-1 gene signature induced by immune complexes in human PBMCs.

[5] = Cardiovascular safety pharmacology studies; details: oral administration
[6] = tested on: cynomolgus monkeys; assay: Chronic oral toxicology study in monkeys; details: end of study exposure
[7] = tested on: male rat; assay: Fertility study in rats; type: in vivo; details: 55 mg/kg/day
Source text: (§2) Immunotoxicity and phototoxicity studies have also been conducted. Carcinogenicity studies in Tg mice (6 month) and rats (2 year) have been completed. […] Brepocitinib-related findings consistent with the mechanism of action (lower thymus weight and cellularity, infection) or not relevant to humans (exacerbation of chronic progressive nephropathy in the kidney) were also observed. Fertility studies in rats have been completed.

[8] = Solubility across physiological pH range; type: physicochemical
[9] = target: OCT2 (Homo sapiens, UniProt O15244); assay: In vitro transporter inhibition, OCT2
Sequence of OCT2 (O15244 whole entry): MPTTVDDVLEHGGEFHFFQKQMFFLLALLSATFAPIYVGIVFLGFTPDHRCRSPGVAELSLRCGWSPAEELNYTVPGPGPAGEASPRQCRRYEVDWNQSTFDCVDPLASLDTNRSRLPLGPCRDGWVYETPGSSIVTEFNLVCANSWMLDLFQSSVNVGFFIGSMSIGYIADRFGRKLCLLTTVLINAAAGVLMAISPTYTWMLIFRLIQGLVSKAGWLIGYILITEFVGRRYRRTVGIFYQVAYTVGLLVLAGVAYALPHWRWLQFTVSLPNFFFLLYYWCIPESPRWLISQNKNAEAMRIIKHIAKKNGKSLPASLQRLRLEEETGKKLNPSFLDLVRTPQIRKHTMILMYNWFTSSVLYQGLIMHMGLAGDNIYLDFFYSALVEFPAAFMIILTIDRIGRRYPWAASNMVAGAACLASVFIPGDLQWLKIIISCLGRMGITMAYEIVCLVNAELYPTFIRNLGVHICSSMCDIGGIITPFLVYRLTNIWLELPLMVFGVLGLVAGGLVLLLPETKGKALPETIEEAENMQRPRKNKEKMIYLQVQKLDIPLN

[10] = In vitro profiling for metabolic drug-drug interactions; details: direct inhibition and induction mechanisms
[11] = target: P-gp (Homo sapiens, UniProt P08183); assay: In vitro transporter inhibition, P-gp
Sequence of P-gp (P08183 whole entry): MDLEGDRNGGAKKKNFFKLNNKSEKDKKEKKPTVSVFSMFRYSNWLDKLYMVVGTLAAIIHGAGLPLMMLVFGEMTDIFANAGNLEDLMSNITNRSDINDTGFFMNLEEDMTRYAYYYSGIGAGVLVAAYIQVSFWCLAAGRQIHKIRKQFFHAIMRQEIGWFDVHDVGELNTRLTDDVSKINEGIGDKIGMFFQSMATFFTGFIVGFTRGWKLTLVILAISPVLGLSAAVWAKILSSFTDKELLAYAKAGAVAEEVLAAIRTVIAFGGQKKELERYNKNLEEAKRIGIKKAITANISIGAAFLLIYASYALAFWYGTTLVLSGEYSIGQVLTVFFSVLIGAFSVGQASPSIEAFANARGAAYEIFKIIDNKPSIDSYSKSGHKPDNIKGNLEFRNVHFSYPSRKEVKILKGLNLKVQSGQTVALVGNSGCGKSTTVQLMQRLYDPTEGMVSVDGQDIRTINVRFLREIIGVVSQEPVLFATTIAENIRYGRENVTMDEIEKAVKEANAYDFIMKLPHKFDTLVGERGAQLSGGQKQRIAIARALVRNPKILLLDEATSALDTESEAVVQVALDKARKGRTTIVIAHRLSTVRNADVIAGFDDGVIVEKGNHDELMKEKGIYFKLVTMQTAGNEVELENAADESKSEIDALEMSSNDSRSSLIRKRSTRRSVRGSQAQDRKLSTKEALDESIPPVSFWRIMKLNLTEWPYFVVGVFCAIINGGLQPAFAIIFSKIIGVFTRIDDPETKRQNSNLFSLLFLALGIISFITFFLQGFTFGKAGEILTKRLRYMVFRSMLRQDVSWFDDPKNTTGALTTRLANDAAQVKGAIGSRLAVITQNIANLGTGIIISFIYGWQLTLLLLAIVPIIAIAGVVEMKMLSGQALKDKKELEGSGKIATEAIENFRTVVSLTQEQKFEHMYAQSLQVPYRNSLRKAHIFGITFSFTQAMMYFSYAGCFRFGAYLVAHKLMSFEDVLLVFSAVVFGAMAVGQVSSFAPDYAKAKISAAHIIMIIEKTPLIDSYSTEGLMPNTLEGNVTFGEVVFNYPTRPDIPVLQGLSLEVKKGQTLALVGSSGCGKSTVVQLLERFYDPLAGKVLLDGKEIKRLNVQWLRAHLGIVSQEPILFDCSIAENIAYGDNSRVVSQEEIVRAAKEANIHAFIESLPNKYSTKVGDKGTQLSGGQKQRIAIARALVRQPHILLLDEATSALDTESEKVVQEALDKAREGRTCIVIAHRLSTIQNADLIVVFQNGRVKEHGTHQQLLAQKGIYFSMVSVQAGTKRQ

[12] = Dissolution from immediate-release tablets; type: physicochemical; details: in 30 minutes; 30 mg tablet, pH 6.8 phosphate buffer, USP Apparatus II, 75 rpm
Procedure: Dissolution: […] An illustrative dissolution profile for a prototype 30 mg tablet in pH 6.8 phosphate buffer using USP Apparatus II, 75 rpm is shown in FIG. 6. […] The final to-be-marketed product will be tested in all three-pH media for confirmation of rapid dissolution. The to-be-marketed product will be developed at a commercial manufacturing site that is to be decided and will be different from that used to manufacture the current clinical trial material.

[13] = tested on: Human dermal microvascular endothelial cells (HMEC-1); assay: IFN-I induced endothelial cell damage (vascular network); type: cell-based; details: Brepocitinib preincubation
Procedure: Timeline for Brepocitinib efficacy evaluation for IFN-I induced pathological changes characteristic of DM in vitro. As shown in the schematic image of FIG. 1, human skeletal muscle myoblasts (HSMM) were cultured and differentiated into myotubes then treated with vehicle control or IFN-I (recombinant Human IFN alpha A and Human IFN alpha D) to induce cellular damage. Myotubes were also preincubated for 1 hour with Brepocitinib (1 μM or 130 nM, the latter is equivalent to the average free plasma concentration after administration of 30 mg once-daily) prior to IFN-I treatment. Immunofluorescence staining followed by image analysis to determine myosin 4 surface area were conducted after 48 hours of IFN-I treatment. […] Under light microscopy, 9 hours after treatment, the number of nodes, master segment length, and total mesh area were analyzed.
Human skeletal muscle myoblasts (Lonza, CC-2580) were cultured in SkGM™-2 media (Lonza, CC-3245) and sub-cultured using ReagentPack™ Subculture Reagents (Lonza, CC-5034). […] The effect on total myotube surface area was evaluated via fluorescent image analysis. […] The effect of type I IFN exposure±Brepocitinib treatment on the number of nodes, master segment length, and total mesh area was evaluated by taking bright-field images every 16 hours.

[14] = target: breast cancer resistance protein (BCRP) (Homo sapiens, UniProt Q9UNQ0); assay: In vitro transporter inhibition, BCRP
Sequence of breast cancer resistance protein (BCRP) (Q9UNQ0 whole entry): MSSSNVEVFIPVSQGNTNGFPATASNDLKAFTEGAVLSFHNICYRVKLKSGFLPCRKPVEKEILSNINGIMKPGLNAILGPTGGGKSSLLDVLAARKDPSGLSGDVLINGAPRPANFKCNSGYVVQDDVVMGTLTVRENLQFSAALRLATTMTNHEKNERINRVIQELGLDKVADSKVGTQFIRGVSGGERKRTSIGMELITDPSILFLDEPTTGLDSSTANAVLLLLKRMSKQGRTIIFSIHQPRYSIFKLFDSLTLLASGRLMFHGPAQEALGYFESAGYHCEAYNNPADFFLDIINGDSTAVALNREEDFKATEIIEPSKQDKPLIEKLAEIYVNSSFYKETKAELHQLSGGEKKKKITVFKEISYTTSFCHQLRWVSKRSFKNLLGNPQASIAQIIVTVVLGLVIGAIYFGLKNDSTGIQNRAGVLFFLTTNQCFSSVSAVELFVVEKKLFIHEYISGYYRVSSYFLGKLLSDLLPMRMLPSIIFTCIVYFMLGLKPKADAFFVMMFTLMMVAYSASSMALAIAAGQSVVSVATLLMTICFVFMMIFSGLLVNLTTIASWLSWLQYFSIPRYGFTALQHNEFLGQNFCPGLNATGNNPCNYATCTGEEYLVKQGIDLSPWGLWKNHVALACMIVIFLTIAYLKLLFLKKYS

[15] = tested on: psoriatic arthritis; assay: Phase 2 study in psoriatic arthritis (ACR20); type: in vivo, human; details: 30 mg; after 4 weeks; psoriatic arthritis patients
Source text: (§3) As part of the clinical development program for oral Brepocitinib, a number of Phase 1 and Phase 2 studies have been completed or have a report in preparation. […] The multiple autoimmune diseases for which there is observed clinical efficacy data for Brepocitinib have mechanistic pathway similarities to DM. For example, psoriasis is driven by IL-17, which is downstream of IL-12 and IL-23 signaling via TYK2 and/or JAK1, and alopecia areata is characterized by excessive activity of IFN-γ, a type II interferon which also signals via JAK1. Of note, dose dependent reductions in IP-10 (CXCL10), an IFN-γ inducible gene, have been observed in Brepocitinib clinical studies, separating from placebo at doses ≥10 mg QD. Importantly, in these phase 2 studies, clinical response with Brepocitinib treatment rapidly separates from placebo. For example, in the phase 2 study assessing Brepocitinib's efficacy in psoriatic arthritis, Brepocitinib 30 mg achieved a 52% ACR20 response rate after 4 weeks compared to a 19% response rate in placebo patients.

[16] = tested on: psoriatic arthritis, plaque psoriasis, ulcerative colitis, alopecia areata, and hidradenitis suppurativa; assay: 5 completed Phase 2 placebo-controlled studies; type: in vivo, human; details: each of 5 placebo-controlled Phase 2 studies
Source text: Primary efficacy endpoints with Brepocitinib. […] These clinical data, along with the overlapping pathogenic cytokine profile, support the rationale for evaluating Brepocitinib in DM.

[17] = tested on: Human skeletal muscle myoblasts (HSMM) differentiated into myotubes; assay: IFN-I induced myotube damage (myosin 4 surface area); type: cell-based; details: for mean myosin surface area: 48 hours IFN-I
Procedure: Timeline for Brepocitinib efficacy evaluation for IFN-I induced pathological changes characteristic of DM in vitro. As shown in the schematic image of FIG. 1, human skeletal muscle myoblasts (HSMM) were cultured and differentiated into myotubes then treated with vehicle control or IFN-I (recombinant Human IFN alpha A and Human IFN alpha D) to induce cellular damage. Myotubes were also preincubated for 1 hour with Brepocitinib (1 μM or 130 nM, the latter is equivalent to the average free plasma concentration after administration of 30 mg once-daily) prior to IFN-I treatment. Immunofluorescence staining followed by image analysis to determine myosin 4 surface area were conducted after 48 hours of IFN-I treatment. Human dermal microvascular endothelial cells (HMEC-1) were cultured and, once vascular networks were established, cells were treated with IFN-I or vehicle control. Cells were also preincubated for 1 hour with Brepocitinib. Under light microscopy, 9 hours after treatment, the number of nodes, master segment length, and total mesh area were analyzed.
Human skeletal muscle myoblasts (Lonza, CC-2580) were cultured in SkGM™-2 media (Lonza, CC-3245) and sub-cultured using ReagentPack™ Subculture Reagents (Lonza, CC-5034). They were then differentiated into myotubes by culturing in differentiation medium [DMEM/F12+2% Horse serum (Thermofisher, 16050122)] for 3-5 days until most of the myoblast cells differentiated into multinucleated myotubes. The myotubes were then preincubated with vehicle or Brepocitinib prior to type I interferon (R&D, 11200-2) exposure at concentrations (FIG. 7). After 48 hours of treatment, cells were fixed and stained with Myosin 4 Monoclonal antibody (MF20; Thermofisher, 14-6503-82) and Hoechst for nuclei visualization. The effect on total myotube surface area was evaluated via fluorescent image analysis. […] The effect of type I IFN exposure±Brepocitinib treatment on the number of nodes, master segment length, and total mesh area was evaluated by taking bright-field images every 16 hours.

[18] = target: P-glycoprotein (P-gp; MDR1; ABCB1) (Homo sapiens, UniProt P08183); assay: P-glycoprotein substrate status
Sequence of P-glycoprotein (P-gp; MDR1; ABCB1) (P08183 whole entry): as the sequence (P08183 whole entry) above

[19] = tested on: CYP3A4/5; details: human
[20] = target: multidrug and toxin extrusion (MATE) 1 (Homo sapiens, UniProt Q96FL8); assay: In vitro transporter inhibition, MATE1
Sequence of multidrug and toxin extrusion (MATE) 1 (Q96FL8 whole entry): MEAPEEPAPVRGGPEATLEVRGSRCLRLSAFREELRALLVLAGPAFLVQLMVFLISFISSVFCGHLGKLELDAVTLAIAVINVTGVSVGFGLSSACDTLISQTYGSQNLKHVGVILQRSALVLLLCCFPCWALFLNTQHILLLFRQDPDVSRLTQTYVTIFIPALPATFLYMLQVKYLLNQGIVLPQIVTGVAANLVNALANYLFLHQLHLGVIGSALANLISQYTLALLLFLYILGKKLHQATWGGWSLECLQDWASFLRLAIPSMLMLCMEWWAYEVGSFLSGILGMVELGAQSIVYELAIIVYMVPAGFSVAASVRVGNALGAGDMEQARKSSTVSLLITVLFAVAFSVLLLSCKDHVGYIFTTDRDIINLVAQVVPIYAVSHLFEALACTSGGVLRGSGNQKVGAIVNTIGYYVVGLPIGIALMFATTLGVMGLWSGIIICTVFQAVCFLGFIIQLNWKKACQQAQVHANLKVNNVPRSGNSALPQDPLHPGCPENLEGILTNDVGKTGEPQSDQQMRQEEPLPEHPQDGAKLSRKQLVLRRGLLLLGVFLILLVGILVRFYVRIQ

[21] = target: organic cation transporter (OCT) 1 (Homo sapiens, UniProt O15245); assay: In vitro transporter inhibition, OCT1
Sequence of organic cation transporter (OCT) 1 (O15245 whole entry): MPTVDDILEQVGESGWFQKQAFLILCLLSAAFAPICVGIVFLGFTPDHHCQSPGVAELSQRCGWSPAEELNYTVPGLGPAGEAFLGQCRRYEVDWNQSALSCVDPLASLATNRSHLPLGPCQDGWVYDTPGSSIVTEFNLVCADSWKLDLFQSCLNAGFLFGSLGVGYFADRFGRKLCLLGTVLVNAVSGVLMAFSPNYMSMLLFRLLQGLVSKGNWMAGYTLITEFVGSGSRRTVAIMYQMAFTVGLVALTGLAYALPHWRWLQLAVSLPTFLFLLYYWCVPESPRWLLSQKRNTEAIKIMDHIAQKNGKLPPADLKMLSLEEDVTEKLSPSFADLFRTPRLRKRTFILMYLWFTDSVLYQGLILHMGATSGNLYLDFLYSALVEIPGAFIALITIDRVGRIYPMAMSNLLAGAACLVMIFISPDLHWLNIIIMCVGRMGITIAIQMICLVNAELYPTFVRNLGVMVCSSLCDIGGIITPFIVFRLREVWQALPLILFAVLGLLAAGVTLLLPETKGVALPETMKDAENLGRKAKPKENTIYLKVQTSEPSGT

[22] = tested on: rats; assay: Chronic oral toxicology study in rats; details: end of study exposure
[23] = Tolerability in clinical studies to date; type: in vivo, human
Source text: Brepocitinib is being evaluated in a double-blind, randomized, placebo-controlled Phase 3 study in DM (NCT0543726; VALOR Study). With a planned enrollment of 225 subjects, the VALOR Study is the largest well-controlled trial in DM to date. Adult patients with definite or probable idiopathic inflammatory myopathy (IIM), who meet the subclassification criteria for DM, have both muscle and skin disease involvement (classic DM), and are receiving (or are not responsive to or are intolerant to) corticosteroids and/or immunomodulatory/immunosuppressive therapies are eligible to enroll. The primary endpoint is the total improvement score (TIS) at week 52. The TIS is a composite endpoint based on the following six CSM scores: the Physician Global Disease Activity, the Patient Global Disease Activity, the Health Assessment Questionnaire, MMT-8, Extramuscular Disease Activity, and muscle enzymes. To evaluate the steroid-sparing effect of Brepocitinib, participants using glucocorticoids at baseline must taper to an oral glucocorticoid dose of prednisone≤5 mg/day (or equivalent) by week 36.

[24] = tested on: IP-10 (CXCL10); assay: IP-10 reduction in clinical studies; type: in vivo, human; details: dose dependent reductions in clinical studies
Source text: as §3

[25] = tested on: T helper (Th) 1, Th17, and B cells; assay: Differentiation of Th1, Th17 and B cells; type: cell-based
Source text: as §1

[26] = clinical; details: human, in vivo
[27] = tested on: human PBMCs; assay: IFN-1 gene signature induced by immune complexes; type: cell-based
Source text: as §1

[28] = tested on: transgenic (Tg) mice; assay: 6-month carcinogenicity study in Tg mice; type: in vivo; details: 6-month Tg mouse study
Source text: as §2

[29] = tested on: human PBMCs; assay: IL-12-induced IFNγ production; type: cell-based
Source text: as §1

[30] = tested on: cytokine-induced phosphorylation of STATs in human PBMCs and whole blood; assay: Cytokine-induced STAT phosphorylation; type: cell-based
Source text: as §1

[31] = human, plasma, 2 μM
[32] = target: CYP1A2 (Homo sapiens, UniProt P05177)
[33] = human

## Cn1cc(Nc2nccc(N3C[C@H]4CC[C@@H](C3)N4C(=O)[C@@H]3CC3(F)F)n2)cn1 [Brepocitinib, [(1S)-2,2-difluorocyclo-propyl][(1R,5S)-3-{2-[(1-methyl-1H-pyrazol-4-yl)amino]pyrimidin-4-yl}-3,8-diazabicyclo[3.2.1]oct-8-yl]methanone]
[1]
  off-target pharmacology potential: low potential for off-target pharmacology
[2]
  Inhibition of cytokine signaling pathways implicated in DM: inhibited
[3]
  dose resulting in 50% maximal response: 15 mg QD
[4]
  effect in rat adjuvant-induced arthritis: anti-inflammatory effects
[5]
  cardiovascular safety pharmacology findings: effects on blood pressure, heartrate, and corrected QT interval (QTc) interval were observed
[6]
  AUC exposure margin, NOAEL to clinical exposure of 30 mg QD: 7.8 fold
[7]; highest dose tested
  effects on male rat fertility: No adverse effects
[7]; male rat fertility
  margin to clinical exposures at highest dose tested: > 50 fold
[8]
  Solubility in 250 mL of the media: fully soluble
[8]; across the physiological pH range
  Solubility: highly soluble
[9]
  In vitro inhibition of OCT2: inhibition
[10]
  potential to be a perpetrator of metabolic drug-drug interactions: low potential
[11]
  In vitro inhibition of P-gp: inhibition
[12]
  dissolution from immediate-release (IR) tablets: > 85%
[13]
  IFN-I induced damage in endothelial cells: almost completely prevented
[14]
  In vitro inhibition of BCRP: inhibition
[15]
  ACR20 response rate: 52%
[16]
  Primary efficacy outcome in Phase 2 studies: clinically meaningful and statistically significant results
[17]; 130 nM preincubation 1 hour
  mean myosin surface area: 94.1 % of the vehicle control
[17]; 1 μM preincubation 1 hour
  mean myosin surface area: 100 % of the vehicle control
[17]; Brepocitinib preincubation, 130 nM and 1 μM
  IFN-I induced damage in myotubes: almost completely prevented
[18]
  P-gp substrate status: substrate
[19]
  in vitro fraction metabolized: 0.77
[20]
  In vitro inhibition of MATE1: inhibition
[21]
  In vitro inhibition of OCT1: inhibition
[22]
  AUC exposure margin, NOAEL to clinical exposure of 30 mg QD: 54 fold
human, in vivo
  radiolabeled dose recovered as unchanged Brepocitinib in the urine: Approximately 8%
human, in vivo, po
  radiolabeled dose recovered as Brepocitinib metabolites in the urine: Approximately 80%
Not told
  Permeability: highly permeable
[23]
  tolerability: generally well-tolerated
[24]
  doses at which IP-10 (CXCL10) reduction separates from placebo: ≥ 10 mg QD
[25]
  differentiation of Th1, Th17, and B cells: inhibits
[26]
  half-life: 4 to 8 h
[26]; absolute bioavailability
  bioavailability: ~75%
[26]; bioavailability of tablets relative to solution
  bioavailability: ~96%
[27]
  IFN-1 gene signature induced by immune complexes: inhibits
[28]
  neoplastic findings: No Brepocitinib-related neoplastic findings
[29]
  IL-12-induced IFNγ production: inhibits
[30]
  cytokine-induced phosphorylation of STATs: inhibits
[31]
  fraction of unbound drug: 0.609
[32]
  in vitro fraction metabolized: 0.14
[33]; in vivo
  dose recovered in urine: ≤ 16%
  effect of food (high-fat meal) on absorption: does not have a clinically relevant effect on the extent of absorption
  fraction absorbed: approximately 100%
  increase of AUC(0-∞) and Cmax with dose: approximately dose-proportional
  time to steady state: ≤ 8 days
[33]; not told, po
  Permeability class according to the BCS criteria: high-permeability compound
